Experimental data: the kinase profiling compilation of Christmann-Franck et al. (2016)
Blank lines part the entries; values can stand above or below the molecule they belong to.

Tests used:
Experiment in all cases: radiometric filter-binding kinase assay
NEK6 (human) = NEK6 (human) (UniProt Q9HC98)
PIM1 (human) = PIM1 (human) (UniProt P11309)
RPS6KA1 KD1 KD2 (human) = RPS6KA1 KD1 KD2 (human) (UniProt Q15418)
IKBKB (human) = IKBKB (human) (UniProt O14920)
MAPK9 (human) = MAPK9 (human) (UniProt P45984)
Sequence of MAPK9 (human) (P45984 whole entry, looked up): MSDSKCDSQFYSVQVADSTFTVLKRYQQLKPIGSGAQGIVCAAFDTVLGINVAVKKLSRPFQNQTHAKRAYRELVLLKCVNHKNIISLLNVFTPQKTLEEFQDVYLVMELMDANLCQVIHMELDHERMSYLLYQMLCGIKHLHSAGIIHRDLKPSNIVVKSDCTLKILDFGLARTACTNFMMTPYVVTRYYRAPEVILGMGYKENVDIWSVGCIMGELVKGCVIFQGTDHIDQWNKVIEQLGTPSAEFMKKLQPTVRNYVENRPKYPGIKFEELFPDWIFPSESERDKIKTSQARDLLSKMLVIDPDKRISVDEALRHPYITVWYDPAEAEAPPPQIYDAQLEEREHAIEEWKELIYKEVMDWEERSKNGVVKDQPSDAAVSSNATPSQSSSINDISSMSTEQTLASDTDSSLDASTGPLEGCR

STK3 (human) = STK3 (human) (UniProt Q13188)
Sequence of STK3 (human) (Q13188 whole entry, looked up): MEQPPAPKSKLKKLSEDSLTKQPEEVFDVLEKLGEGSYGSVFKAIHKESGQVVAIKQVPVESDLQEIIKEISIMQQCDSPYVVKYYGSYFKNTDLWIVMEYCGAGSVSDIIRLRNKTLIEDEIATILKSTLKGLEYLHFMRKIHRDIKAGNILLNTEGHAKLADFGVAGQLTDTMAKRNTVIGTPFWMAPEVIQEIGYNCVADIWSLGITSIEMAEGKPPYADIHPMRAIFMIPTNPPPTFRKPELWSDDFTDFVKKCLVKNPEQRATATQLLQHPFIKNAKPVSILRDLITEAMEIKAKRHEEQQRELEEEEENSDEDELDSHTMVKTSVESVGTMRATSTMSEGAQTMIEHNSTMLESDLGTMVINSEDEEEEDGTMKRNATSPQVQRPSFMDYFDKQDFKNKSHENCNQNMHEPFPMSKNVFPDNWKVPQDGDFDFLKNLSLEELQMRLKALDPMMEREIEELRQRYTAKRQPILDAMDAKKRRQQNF

MAPK8 (human) = MAPK8 (human) (UniProt P45983)
[1] = tested on: RPS6KB1 (human), P23443 [T412E]
DYRK1A (human) = DYRK1A (human) (UniProt Q13627)
MAPKAPK2 (human) = MAPKAPK2 (human) (UniProt P49137)
Sequence of MAPKAPK2 (human) (P49137 whole entry, looked up): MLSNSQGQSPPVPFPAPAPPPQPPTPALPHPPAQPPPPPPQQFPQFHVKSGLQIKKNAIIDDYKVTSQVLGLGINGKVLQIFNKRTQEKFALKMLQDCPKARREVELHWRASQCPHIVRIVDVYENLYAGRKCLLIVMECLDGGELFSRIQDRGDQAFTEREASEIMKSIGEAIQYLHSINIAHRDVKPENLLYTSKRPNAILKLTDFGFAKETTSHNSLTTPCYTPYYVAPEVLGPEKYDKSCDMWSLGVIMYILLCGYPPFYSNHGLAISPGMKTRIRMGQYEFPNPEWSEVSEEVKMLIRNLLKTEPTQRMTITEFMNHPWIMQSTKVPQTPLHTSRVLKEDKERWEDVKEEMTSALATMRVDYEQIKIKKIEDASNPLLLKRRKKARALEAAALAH

MARK3 (human) = MARK3 (human) (UniProt P27448)
CHEK2 (human) = CHEK2 (human) (UniProt O96017)
Sequence of CHEK2 (human) (O96017 whole entry, looked up): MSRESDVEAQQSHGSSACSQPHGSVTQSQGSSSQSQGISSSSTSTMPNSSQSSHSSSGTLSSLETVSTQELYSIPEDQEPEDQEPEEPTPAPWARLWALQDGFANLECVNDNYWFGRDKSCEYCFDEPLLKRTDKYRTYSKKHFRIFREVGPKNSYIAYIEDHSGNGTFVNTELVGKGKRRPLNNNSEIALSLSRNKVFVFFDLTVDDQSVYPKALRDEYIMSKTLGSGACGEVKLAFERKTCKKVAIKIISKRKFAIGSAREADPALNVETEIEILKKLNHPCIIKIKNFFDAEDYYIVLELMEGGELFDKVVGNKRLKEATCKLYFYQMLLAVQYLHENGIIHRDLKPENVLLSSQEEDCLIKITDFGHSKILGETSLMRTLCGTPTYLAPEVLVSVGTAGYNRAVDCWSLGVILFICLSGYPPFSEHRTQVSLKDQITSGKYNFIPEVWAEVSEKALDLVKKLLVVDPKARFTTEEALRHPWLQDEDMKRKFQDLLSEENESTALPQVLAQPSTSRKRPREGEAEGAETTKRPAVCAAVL

MKNK2 (human) = MKNK2 (human) (UniProt Q9HBH9)
MAPK3 (human) = MAPK3 (human) (UniProt P27361)
[2] = tested on: AKT1 (human), P31749 [S473D]
PAK4 (human) = PAK4 (human) (UniProt O96013)
MAPK14 (human) = MAPK14 (human) (UniProt Q16539)
Sequence of MAPK14 (human) (Q16539 whole entry, looked up): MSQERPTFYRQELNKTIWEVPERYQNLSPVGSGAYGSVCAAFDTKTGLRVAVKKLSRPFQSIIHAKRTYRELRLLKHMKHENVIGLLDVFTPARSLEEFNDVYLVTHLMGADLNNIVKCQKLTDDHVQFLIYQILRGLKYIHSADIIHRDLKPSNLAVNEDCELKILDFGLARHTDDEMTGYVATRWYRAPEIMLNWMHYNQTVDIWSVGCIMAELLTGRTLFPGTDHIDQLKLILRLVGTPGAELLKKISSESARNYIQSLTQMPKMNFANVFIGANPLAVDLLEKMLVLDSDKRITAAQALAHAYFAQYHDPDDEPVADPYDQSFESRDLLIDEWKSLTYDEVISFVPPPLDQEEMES

MAP2K1 (human) = MAP2K1 (human) (UniProt Q02750)
Sequence of MAP2K1 (human) (Q02750 whole entry, looked up): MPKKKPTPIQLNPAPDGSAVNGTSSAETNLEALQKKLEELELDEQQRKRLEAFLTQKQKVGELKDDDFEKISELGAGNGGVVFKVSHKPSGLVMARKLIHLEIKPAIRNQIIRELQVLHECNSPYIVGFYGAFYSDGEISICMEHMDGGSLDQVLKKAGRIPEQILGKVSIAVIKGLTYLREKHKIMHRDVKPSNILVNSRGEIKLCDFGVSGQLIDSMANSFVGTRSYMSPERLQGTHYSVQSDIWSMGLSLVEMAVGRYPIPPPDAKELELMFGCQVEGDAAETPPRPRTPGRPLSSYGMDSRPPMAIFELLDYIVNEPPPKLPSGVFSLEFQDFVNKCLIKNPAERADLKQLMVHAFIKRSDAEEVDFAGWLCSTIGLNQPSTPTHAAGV

NEK2 (human) = NEK2 (human) (UniProt P51955)
DYRK3 (human) = DYRK3 (human) (UniProt O43781)
Sequence of DYRK3 (human) (O43781 whole entry, looked up): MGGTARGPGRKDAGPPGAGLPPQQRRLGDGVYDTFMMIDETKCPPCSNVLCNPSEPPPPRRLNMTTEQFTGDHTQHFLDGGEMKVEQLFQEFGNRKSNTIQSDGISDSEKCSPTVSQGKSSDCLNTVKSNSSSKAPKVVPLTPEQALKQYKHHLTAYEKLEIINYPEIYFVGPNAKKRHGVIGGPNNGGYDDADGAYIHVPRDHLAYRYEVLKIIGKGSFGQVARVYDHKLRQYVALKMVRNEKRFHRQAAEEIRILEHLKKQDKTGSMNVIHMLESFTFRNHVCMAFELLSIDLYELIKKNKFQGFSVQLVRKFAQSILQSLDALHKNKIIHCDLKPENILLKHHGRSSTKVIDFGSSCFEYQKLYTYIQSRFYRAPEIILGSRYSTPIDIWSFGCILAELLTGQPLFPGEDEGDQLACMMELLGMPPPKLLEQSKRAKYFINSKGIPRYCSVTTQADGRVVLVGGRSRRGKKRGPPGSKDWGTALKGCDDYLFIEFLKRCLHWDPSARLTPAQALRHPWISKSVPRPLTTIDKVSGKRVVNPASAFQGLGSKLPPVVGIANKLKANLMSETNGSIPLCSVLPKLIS

CSNK1D (human) = CSNK1D (human) (UniProt P48730)
Sequence of CSNK1D (human) (P48730 whole entry, looked up): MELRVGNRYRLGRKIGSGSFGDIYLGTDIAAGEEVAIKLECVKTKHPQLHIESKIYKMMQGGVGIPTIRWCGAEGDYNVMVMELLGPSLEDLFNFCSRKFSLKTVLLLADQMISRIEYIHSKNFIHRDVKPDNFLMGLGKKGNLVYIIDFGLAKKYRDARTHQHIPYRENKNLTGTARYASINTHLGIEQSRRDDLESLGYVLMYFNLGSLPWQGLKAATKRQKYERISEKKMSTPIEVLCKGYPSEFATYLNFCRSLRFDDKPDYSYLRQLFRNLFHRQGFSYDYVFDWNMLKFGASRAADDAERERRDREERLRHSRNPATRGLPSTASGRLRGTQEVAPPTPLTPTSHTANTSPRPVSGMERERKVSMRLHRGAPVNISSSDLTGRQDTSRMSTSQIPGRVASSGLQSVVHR

CaMK1 (human) = CaMK1 (human) (UniProt Q14012)
Sequence of CaMK1 (human) (Q14012 whole entry, looked up): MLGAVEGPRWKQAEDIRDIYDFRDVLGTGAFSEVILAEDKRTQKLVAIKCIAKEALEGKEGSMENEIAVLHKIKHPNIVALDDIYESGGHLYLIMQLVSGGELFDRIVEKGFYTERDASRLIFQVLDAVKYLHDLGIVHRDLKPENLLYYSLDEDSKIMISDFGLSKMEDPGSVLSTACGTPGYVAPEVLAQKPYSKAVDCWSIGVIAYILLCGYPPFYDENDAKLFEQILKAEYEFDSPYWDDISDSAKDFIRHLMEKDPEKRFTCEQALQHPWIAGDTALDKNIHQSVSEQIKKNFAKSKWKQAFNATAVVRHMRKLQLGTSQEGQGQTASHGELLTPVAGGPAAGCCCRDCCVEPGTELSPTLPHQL

MKNK1 (human) = MKNK1 (human) (UniProt Q9BUB5)

Sequence of IKBKB (human) (O14920 whole entry, looked up): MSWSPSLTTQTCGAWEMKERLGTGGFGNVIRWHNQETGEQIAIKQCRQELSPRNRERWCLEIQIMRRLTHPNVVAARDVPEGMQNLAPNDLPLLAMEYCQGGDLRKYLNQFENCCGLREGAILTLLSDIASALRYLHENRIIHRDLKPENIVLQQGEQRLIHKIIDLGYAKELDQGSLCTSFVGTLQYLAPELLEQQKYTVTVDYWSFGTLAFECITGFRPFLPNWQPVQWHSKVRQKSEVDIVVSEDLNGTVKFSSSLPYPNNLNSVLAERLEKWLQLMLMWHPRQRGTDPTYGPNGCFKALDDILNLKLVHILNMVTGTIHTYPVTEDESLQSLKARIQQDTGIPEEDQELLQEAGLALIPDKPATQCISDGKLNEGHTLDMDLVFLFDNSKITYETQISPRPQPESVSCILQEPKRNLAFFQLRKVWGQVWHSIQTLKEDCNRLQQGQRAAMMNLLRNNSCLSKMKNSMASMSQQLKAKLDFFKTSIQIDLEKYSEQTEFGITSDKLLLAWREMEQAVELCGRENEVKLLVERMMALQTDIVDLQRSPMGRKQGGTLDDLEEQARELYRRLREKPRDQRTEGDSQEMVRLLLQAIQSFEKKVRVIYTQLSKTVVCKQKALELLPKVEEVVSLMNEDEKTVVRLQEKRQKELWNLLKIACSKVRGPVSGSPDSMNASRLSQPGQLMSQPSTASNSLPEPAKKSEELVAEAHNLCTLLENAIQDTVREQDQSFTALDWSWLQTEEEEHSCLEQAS

- residual activity (NEK6 (human); compound 1.0 µM): 95%
- residual activity (NEK6 (human); compound 10.0 µM): 95%
- residual activity (PIM1 (human); compound 1.0 µM): 111%
- residual activity (PIM1 (human); compound 10.0 µM): 115%
- residual activity (RPS6KA1 KD1 KD2 (human); compound 1.0 µM): 121%
- residual activity (RPS6KA1 KD1 KD2 (human); compound 10.0 µM): 102%
- residual activity (IKBKB (human); compound 1.0 µM): 98%
- residual activity (IKBKB (human); compound 10.0 µM): 96%
- residual activity (MAPK9 (human); compound 1.0 µM): 122%
- residual activity (MAPK9 (human); compound 10.0 µM): 124%
- residual activity (STK3 (human); compound 1.0 µM): 102%
- residual activity (STK3 (human); compound 10.0 µM): 104%
- residual activity (MAPK8 (human); compound 1.0 µM): 112%
- residual activity (MAPK8 (human); compound 10.0 µM): 102%
- residual activity ([1]; compound 1.0 µM): 114%
- residual activity ([1]; compound 10.0 µM): 114%
- residual activity (DYRK1A (human); compound 1.0 µM): 105%
- residual activity (DYRK1A (human); compound 10.0 µM): 101%
- residual activity (MAPKAPK2 (human); compound 1.0 µM): 97%
- residual activity (MAPKAPK2 (human); compound 10.0 µM): 95%
- residual activity (MARK3 (human); compound 1.0 µM): 82%
- residual activity (MARK3 (human); compound 10.0 µM): 79%
- residual activity (CHEK2 (human); compound 1.0 µM): 103%
- residual activity (CHEK2 (human); compound 10.0 µM): 96%
- residual activity (MKNK2 (human); compound 1.0 µM): 104%
- residual activity (MKNK2 (human); compound 10.0 µM): 103%
- residual activity (MAPK3 (human); compound 1.0 µM): 124%
- residual activity (MAPK3 (human); compound 10.0 µM): 111%
- residual activity ([2]; compound 1.0 µM): 124%
- residual activity ([2]; compound 10.0 µM): 106%
- residual activity (PAK4 (human); compound 1.0 µM): 86%
- residual activity (PAK4 (human); compound 10.0 µM): 97%
- residual activity (MAPK14 (human); compound 1.0 µM): 93%
- residual activity (MAPK14 (human); compound 10.0 µM): 80%
- residual activity (MAP2K1 (human); compound 1.0 µM): 108%
- residual activity (MAP2K1 (human); compound 10.0 µM): 104%
- residual activity (NEK2 (human); compound 1.0 µM): 102%
- residual activity (NEK2 (human); compound 10.0 µM): 100%
- residual activity (DYRK3 (human); compound 1.0 µM): 119%
- residual activity (DYRK3 (human); compound 10.0 µM): 101%
- residual activity (CSNK1D (human); compound 1.0 µM): 97%
- residual activity (CSNK1D (human); compound 10.0 µM): 62%
- residual activity (CaMK1 (human); compound 1.0 µM): 103%
- residual activity (CaMK1 (human); compound 10.0 µM): 97%
- residual activity (MKNK1 (human); compound 1.0 µM): 95%
- residual activity (MKNK1 (human); compound 10.0 µM): 92%
SMILES: Cn1nc(Nc2ccc(F)cc2)c2c(N)ncnc21

- residual activity (NEK6 (human); compound 0.1 µM): 99%
- residual activity (NEK6 (human); compound 1.0 µM): 87%
- residual activity (NEK6 (human); compound 10.0 µM): 84%
- residual activity (PIM1 (human); compound 0.1 µM): 9%
- residual activity (PIM1 (human); compound 1.0 µM): 1%
- residual activity (PIM1 (human); compound 10.0 µM): 2%
- residual activity (RPS6KA1 KD1 KD2 (human); compound 0.1 µM): 10%
- residual activity (RPS6KA1 KD1 KD2 (human); compound 1.0 µM): 5%
- residual activity (RPS6KA1 KD1 KD2 (human); compound 10.0 µM): 5%
- residual activity (IKBKB (human); compound 0.1 µM): 104%
- residual activity (IKBKB (human); compound 1.0 µM): 94%
- residual activity (IKBKB (human); compound 10.0 µM): 80%
- residual activity (MAPK9 (human); compound 0.1 µM): 92%
- residual activity (MAPK9 (human); compound 1.0 µM): 63%
- residual activity (MAPK9 (human); compound 10.0 µM): 35%
- residual activity (STK3 (human); compound 0.1 µM): 20%
- residual activity (STK3 (human); compound 1.0 µM): 3%
- residual activity (STK3 (human); compound 10.0 µM): 2%
- residual activity (MAPK8 (human); compound 0.1 µM): 103%
- residual activity (MAPK8 (human); compound 1.0 µM): 99%
- residual activity (MAPK8 (human); compound 10.0 µM): 60%
- residual activity ([1]; compound 0.1 µM): 11%
- residual activity ([1]; compound 1.0 µM): 2%
- residual activity ([1]; compound 10.0 µM): 1%
- residual activity (DYRK1A (human); compound 0.1 µM): 96%
- residual activity (DYRK1A (human); compound 1.0 µM): 68%
- residual activity (DYRK1A (human); compound 10.0 µM): 41%
- residual activity (MAPKAPK2 (human); compound 0.1 µM): 107%
- residual activity (MAPKAPK2 (human); compound 1.0 µM): 93%
- residual activity (MAPKAPK2 (human); compound 10.0 µM): 62%
- residual activity (MARK3 (human); compound 0.1 µM): 93%
- residual activity (MARK3 (human); compound 1.0 µM): 68%
- residual activity (MARK3 (human); compound 10.0 µM): 33%
- residual activity (CHEK2 (human); compound 0.1 µM): 57%
- residual activity (CHEK2 (human); compound 1.0 µM): 27%
- residual activity (CHEK2 (human); compound 10.0 µM): 10%
- residual activity (MKNK2 (human); compound 0.1 µM): 90%
- residual activity (MKNK2 (human); compound 1.0 µM): 88%
- residual activity (MKNK2 (human); compound 10.0 µM): 70%
- residual activity (MAPK3 (human); compound 0.1 µM): 94%
- residual activity (MAPK3 (human); compound 1.0 µM): 102%
- residual activity (MAPK3 (human); compound 10.0 µM): 96%
- residual activity ([2]; compound 0.1 µM): 70%
- residual activity ([2]; compound 1.0 µM): 34%
- residual activity ([2]; compound 10.0 µM): 8%
- residual activity (PAK4 (human); compound 0.1 µM): 99%
- residual activity (PAK4 (human); compound 1.0 µM): 82%
- residual activity (PAK4 (human); compound 10.0 µM): 66%
- residual activity (MAPK14 (human); compound 0.1 µM): 107%
- residual activity (MAPK14 (human); compound 1.0 µM): 106%
- residual activity (MAPK14 (human); compound 10.0 µM): 86%
- residual activity (MAP2K1 (human); compound 0.1 µM): 82%
- residual activity (MAP2K1 (human); compound 1.0 µM): 27%
- residual activity (MAP2K1 (human); compound 10.0 µM): 16%
- residual activity (NEK2 (human); compound 0.1 µM): 95%
- residual activity (NEK2 (human); compound 1.0 µM): 80%
- residual activity (NEK2 (human); compound 10.0 µM): 59%
- residual activity (DYRK3 (human); compound 0.1 µM): 92%
- residual activity (DYRK3 (human); compound 1.0 µM): 57%
- residual activity (DYRK3 (human); compound 10.0 µM): 24%
- residual activity (CSNK1D (human); compound 0.1 µM): 103%
- residual activity (CSNK1D (human); compound 1.0 µM): 83%
- residual activity (CSNK1D (human); compound 10.0 µM): 68%
- residual activity (CaMK1 (human); compound 0.1 µM): 79%
- residual activity (CaMK1 (human); compound 1.0 µM): 55%
- residual activity (CaMK1 (human); compound 10.0 µM): 16%
- residual activity (MKNK1 (human); compound 0.1 µM): 94%
- residual activity (MKNK1 (human); compound 1.0 µM): 80%
- residual activity (MKNK1 (human); compound 10.0 µM): 62%
SMILES: COc1ccc2c(c1)c1c3c(c4c5ccccc5n(C)c4c1n2CC(O)CN(C)C)C(=O)NC3=O (stereo not given)
